Test results reported in PubChem BioAssay (NCI).
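These data come from cells grown in 96-well plates and exposed to compound for 48 hours at five concentrations. The concentration for 50% growth inhibition is given as GI50. At the TGI there is no net growth.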

How the values were obtained:
Assay in all cases: DTP human tumour cell line panel, 48 h
SN12C renal = system: SN12C renal
SR leukemia = system: SR leukemia
SF-295 CNS = system: SF-295 CNS
OVCAR-5 ovarian = system: OVCAR-5 ovarian
EKVX NSCLC = system: EKVX NSCLC
KM12 colon = system: KM12 colon
SF-539 CNS = system: SF-539 CNS
HCC-2998 colon = system: HCC-2998 colon
NCI-H23 lung = system: NCI-H23 lung

Row | SMILES | GI50 (SN12C renal) | TGI (SN12C renal) | GI50 (SR leukemia) | TGI (SR leukemia) | GI50 (SF-295 CNS) | TGI (SF-295 CNS) | GI50 (OVCAR-5 ovarian) | TGI (OVCAR-5 ovarian) | GI50 (EKVX NSCLC) | TGI (EKVX NSCLC) | GI50 (KM12 colon) | TGI (KM12 colon) | GI50 (SF-539 CNS) | TGI (SF-539 CNS) | GI50 (HCC-2998 colon) | TGI (HCC-2998 colon) | GI50 (NCI-H23 lung) | TGI (NCI-H23 lung)
1 | C1CC[N-]CC1.CC(=N\O)/C(C)=N/O.CC(=N\O)/C(C)=N/O.C[CH-]C(C)O.[Co+2] | 40.1 µM | > 100 µM | 18.2 µM | 45 µM | 88.5 µM | > 100 µM | 35.1 µM | > 100 µM | 35.7 µM | > 100 µM | 34.3 µM | > 100 µM | 24 µM | 94.4 µM | – | – | – | –
2 | C[C@@H](C[C@H](CCO)c1ccccc1)c1ccc2ccccc2c1 | 1.69 µM | 3.22 µM | – | – | 1.72 µM | 3.19 µM | 1.57 µM | 3.04 µM | 1.44 µM | 2.82 µM | 1.4 µM | 2.83 µM | 1.68 µM | 3.11 µM | 1.74 µM | 3.27 µM | 1.6 µM | 3.38 µM
3 | CCCCOP1(=O)CC(C)=C(Cl)C(C)(OC)C1 (configuration not stated) | – | > 100 µM | – | 89.3 µM | – | > 100 µM | – | – | – | > 100 µM | – | > 100 µM | – | > 100 µM | – | > 100 µM | – | > 100 µM
4 | Cc1c(C2CCSc3ccccc3N2)sc2ccccc12 (configuration not stated) | – | > 100 µM | – | – | – | > 100 µM | – | – | – | > 100 µM | – | > 100 µM | – | > 100 µM | – | > 100 µM | – | > 100 µM
5 | COc1ccc(/C=C2/CSC/C(=C/c3ccc(OC)c(OC)c3)C2=O)cc1OC | – | 4.13 µM | – | – | – | 16.3 µM | – | 12.7 µM | – | 42.8 µM | – | 3.26 µM | – | 10.6 µM | – | 6.28 µM | – | 6.13 µM
6 | C[C@@H]1Cc2c(ccc3[nH]ncc23)[C@@H](c2ccc(NC3CN(CCCF)C3)cn2)N1CC(F)(F)F | 24 µM | 79 µM | 16.8 µM | 53.1 µM | 18 µM | 36.9 µM | 26.4 µM | > 100 µM | 28.9 µM | > 100 µM | 31.3 µM | > 100 µM | 16.9 µM | 32.5 µM | 17.2 µM | 33.5 µM | – | –
7 | CCSc1nc(N)c2cnn(CC)c2n1 | 4.12 µM | 26.1 µM | 2.27 µM | 48.9 µM | 8.02 µM | > 100 µM | 27.1 µM | > 100 µM | 7.79 µM | 34.1 µM | 3.15 µM | > 100 µM | 6.67 µM | 27.3 µM | – | – | 10.3 µM | 22 µM
8 | N/C(CC(=O)NOC(=O)c1ccccc1)=N/OC(=O)c1ccccc1 | – | > 100 µM | – | – | – | 61.6 µM | – | > 100 µM | – | 77.5 µM | – | > 100 µM | – | 54.8 µM | – | – | – | > 100 µM
9 | CCN(CC)CCNc1ccc([N+](=O)[O-])c2nc3ccc(OC)cc3c(N)c12 | – | 2.83 µM | – | 0.972 µM | – | 2.96 µM | – | 3.15 µM | – | 3.28 µM | – | 2.57 µM | – | 3.27 µM | – | – | – | 3.53 µM
10 | CC(=O)OC1=C(CC(C)(C)C)C(=O)c2ccccc2C1=O | – | – | – | 50.7 µM | – | 70.4 µM | – | – | – | > 100 µM | – | > 100 µM | – | > 100 µM | – | > 100 µM | – | 38.8 µM
11 | O=C(N/N=C/c1ccc(N(CCCl)CCCl)cc1)c1ccc(C(=O)N/N=C/c2ccc(N(CCCl)CCCl)cc2)cc1 | 0.232 µM | > 100 µM | – | > 100 µM | 0.213 µM | > 100 µM | 71.5 µM | > 100 µM | – | – | 15.8 µM | > 100 µM | 0.612 µM | 47.3 µM | 86.8 µM | > 100 µM | – | –
12 | C=C(CN1CCN(c2ccc(F)c(Cl)c2)CC1)c1ccc(C(=O)Nc2ccccc2N)cc1 | 5.1 µM | 59.5 µM | – | – | 6.95 µM | > 100 µM | 15.1 µM | > 100 µM | 15.8 µM | > 100 µM | 4.07 µM | > 100 µM | 5.79 µM | 26.2 µM | 9.47 µM | 24.9 µM | 5.27 µM | 29.7 µM
13 | Nc1ccn(C2CC3OCC3O2)c(=O)n1 (configuration not stated) | – | > 100 µM | – | > 100 µM | – | > 100 µM | – | > 100 µM | – | > 100 µM | – | > 100 µM | – | > 100 µM | – | – | – | > 100 µM
14 | Cc1cn2cc(-c3ccc4c(c3)CC(=O)N4)nc2s1 | > 100 µM | > 100 µM | – | – | > 100 µM | > 100 µM | > 100 µM | > 100 µM | 79.2 µM | > 100 µM | 44.2 µM | > 100 µM | > 100 µM | > 100 µM | 46.2 µM | > 100 µM | > 100 µM | > 100 µM
15 | CNc1nc(-c2ccc3c(N)n[nH]c3c2)cc(N2C[C@@H](C(=O)NC3CCCCC3)CC[C@H]2C)n1 | 3.04 µM | 20.2 µM | – | – | 2.61 µM | 15.8 µM | 3.43 µM | 16.8 µM | 2.12 µM | 15.4 µM | 8.37 µM | 22.4 µM | 3.76 µM | 17.8 µM | 8.53 µM | 21.7 µM | 3.69 µM | 20.1 µM
16 | CC1/C(=N/O)CC(c2ccccc2)N(N=O)C1c1ccccc1 (configuration not stated) | – | > 100 µM | – | – | – | > 100 µM | – | – | – | > 100 µM | – | > 100 µM | – | > 100 µM | – | > 100 µM | – | > 100 µM
17 | CC[C@@H](C(=O)[C@@H](C)[C@@H](O)[C@H](C)[C@@H]1O[C@@H]([C@@H](CC)C(=O)O)CC[C@@H]1C)[C@H]1O[C@]2(C=C[C@@H](O)[C@]3(CC[C@@](C)([C@H]4CC[C@](O)(CC)[C@H](C)O4)O3)O2)[C@H](C)C[C@@H]1C | 0.226 µM | 44.8 µM | – | – | 0.447 µM | 7.71 µM | 6.61 µM | 80.5 µM | 1.11 µM | 24.8 µM | 1.18 µM | 15.7 µM | 0.806 µM | 5.27 µM | 0.166 µM | 13 µM | 0.528 µM | 11.4 µM
18 | CC1=CC(=O)N2C(OC[C@@H]2c2ccccc2)O1 (some centres not stated) | – | > 100 µM | – | > 100 µM | – | > 100 µM | – | – | – | > 100 µM | – | > 100 µM | – | > 100 µM | – | – | – | > 100 µM
19 | O=[N+]([O-])c1ccc2nc(-c3ccc(Cl)cc3)[nH]c2c1 | – | > 100 µM | – | 79.9 µM | – | 42.7 µM | – | – | – | 40.3 µM | – | – | – | 39.6 µM | – | – | – | > 100 µM
